Results published in ChEMBL document CHEMBL5120922, “Discovery, Optimization, and Evaluation of Potent and Selective PI3Kδ-γ Dual Inhibitors for the Treatment of B-cell Malignancies” (J Med Chem, 2022).
The source made the active and inactive calls. The calls are words filed in the database; no cut-off is given here.

Columns and labels:
DOHH-2 [1] = assay: Induction of cell cycle arrest in human DOHH-2 cells assessed as accumulation of cells at S phase at 0.5 uM incubated for 24 hrs by PI staining based FACScan flow cytometry analysis (reference value: 55.11 %); format: functional
[2] = Clearance in Sprague-Dawley rat at 5 mg/kg, po measured upto 24 hrs by LC-MS/MS analysis; format: ADME, organism-based; details: in vivo
[3] = Tmax in Sprague-Dawley rat at 5 mg/kg, iv measured upto 24 hrs by LC-MS/MS analysis; format: ADME, organism-based; details: in vivo
[4] = Clearance in Sprague-Dawley rat at 2 mg/kg, iv measured upto 24 hrs by LC-MS/MS analysis; format: ADME, organism-based; details: in vivo
[5] = Selectivity ratio of IC50 for human SKOV-3 cells over expressing PI3Kalpha to IC50 for human SUDHL-6 cells; format: functional
[6] = Cmax in Sprague-Dawley rat at 2 mg/kg, iv measured upto 24 hrs by LC-MS/MS analysis; format: ADME, organism-based; parameters: time < 24 hrs, dose 2 mg/kg, route iv; details: in vivo
[7] = Half life in Sprague-Dawley rat at 5 mg/kg, po measured upto 24 hrs by LC-MS/MS analysis; format: ADME, organism-based; details: in vivo
SU-DHL-6 [8] = assay: Antiproliferative activity against human SU-DHL-6 cells assessed as cell growth inhibition measured after 72 hrs by MTT assay; format: functional, cell-based; details: SU-DHL-6, 72 h
SU-DHL-6 [9] = assay: Induction of apoptosis in human SU-DHL-6 cells assessed as viable cells at 1.5 uM incubated for 48 hrs in presence of ibrutinib by annexin V-FITC and PI staining based flow cytometry analysis (reference value: 87.0 %); format: functional; details: read-out: Activity
[10] = Tmax in Sprague-Dawley rat at 5 mg/kg, po measured upto 24 hrs by LC-MS/MS analysis; format: ADME, organism-based; details: in vivo
[11] = AUC(0 to t) in Sprague-Dawley rat at 5 mg/kg, po measured upto 24 hrs by LC-MS/MS analysis; format: ADME, organism-based; parameters: dose 5 mg/kg, time < 24 hrs, route po; details: in vivo
[12] = Oral bioavailability in Sprague-Dawley rat at 5 mg/kg measured upto 24 hrs by LC-MS/MS analysis; format: ADME, organism-based; details: in vivo
SU-DHL-6 [13] = assay: Induction of apoptosis in human SU-DHL-6 cells assessed as late apoptotic cells at 1.5 uM incubated for 48 hrs by annexin V-FITC and PI staining based flow cytometry analysis (reference value: 3.88 %); format: functional
SU-DHL-6 [14] = assay: Induction of apoptosis in human SU-DHL-6 cells assessed as necrotic cells at 1.5 uM incubated for 48 hrs in presence of ibrutinib by annexin V-FITC and PI staining based flow cytometry analysis (reference value: 0.32%); format: functional
SU-DHL-6 [15] = assay: Induction of cell cycle arrest in human SU-DHL-6 cells assessed as accumulation of cells at S phase at 0.5 uM incubated for 24 hrs by PI staining based FACScan flow cytometry analysis (reference value: 24.18 %); format: functional
[16] = target: Phosphatidylinositol 4,5-bisphosphate 3-kinase catalytic subunit alpha isoform (Homo sapiens, UniProt P42336); assay: Inhibition of N-terminal His6-tagged recombinant full length human PI3Kalpha expressed in baculovirus infected Sf21 insect cells incubated for 30 mins by HTRF assay
[17] = Half life in Sprague-Dawley rat at 10 mg/kg, po measured upto 24 hrs by LC-MS/MS analysis; format: ADME, organism-based; details: in vivo
SU-DHL-6 [18] = assay: Induction of cell cycle arrest in human SU-DHL-6 cells assessed as accumulation of cells at G2/M phase at 0.5 uM incubated for 24 hrs in presence of ibrutinib by PI staining based FACScan flow cytometry analysis (reference value: 20.21 %); format: functional
SU-DHL-6 [19] = assay: Induction of apoptosis in human SU-DHL-6 cells assessed as necrotic cells at 1.5 uM incubated for 48 hrs by annexin V-FITC and PI staining based flow cytometry analysis (reference value: 0.32%); format: functional
SUD4 = assay: Antiproliferative activity against human SU-DHL-4 cells assessed as cell growth inhibition measured after 72 hrs by MTT assay; format: functional, cell-based; details: SU-DHL-4, 72 h
DOHH-2 [20] = assay: Induction of apoptosis in human DOHH-2 cells assessed as viable cells at 2 uM incubated for 48 hrs by annexin V-FITC and PI staining based flow cytometry analysis (reference value: 95.4 %); format: functional; details: read-out: Activity
SU-DHL-6 [21] = assay: Induction of cell cycle arrest in human SU-DHL-6 cells assessed as accumulation of cells at G0/G1 phase at 0.5 uM incubated for 24 hrs by PI staining based FACScan flow cytometry analysis (reference value: 55.61 %); format: functional
[22] = AUC(0 to t) in Sprague-Dawley rat at 5 mg/kg, iv measured upto 24 hrs by LC-MS/MS analysis; format: ADME, organism-based; parameters: time < 24 hrs, dose 5 mg/kg, route iv; details: in vivo
[23] = Volume of distribution at steady state in Sprague-Dawley rat at 5 mg/kg, iv measured upto 24 hrs by LC-MS/MS analysis; format: ADME, organism-based; details: in vivo, read-out: Vdss
[24] = Half life in Sprague-Dawley rat at 5 mg/kg, iv measured upto 24 hrs by LC-MS/MS analysis; format: ADME, organism-based; details: in vivo
[25] = Cmax in Sprague-Dawley rat at 5 mg/kg, po measured upto 24 hrs by LC-MS/MS analysis; format: ADME, organism-based; parameters: dose 5 mg/kg, time < 24 hrs, route po; details: in vivo
SU-DHL-6 [26] = assay: Antitumor activity against human SU-DHL-6 cells xenografted in NOD/SCID mouse assessed as reduction in tumor weight at 10 mg/kg, po measured every 2 days in presence of ibrutinib; format: functional, organism-based; details: time 2.0 day
[27] = Half life in Sprague-Dawley rat at 2 mg/kg, iv measured upto 24 hrs by LC-MS/MS analysis; format: ADME, organism-based; details: in vivo
[28] = Cmax in Sprague-Dawley rat at 5 mg/kg, iv measured upto 24 hrs by LC-MS/MS analysis; format: ADME, organism-based; parameters: time < 24 hrs, dose 5 mg/kg, route iv; details: in vivo
DOHH-2 [29] = assay: Induction of cell cycle arrest in human DOHH-2 cells assessed as accumulation of cells at G2/M phase at 0.5 uM incubated for 24 hrs in presence of ibrutinib by PI staining based flow cytometry analysis (reference value: 21.42 %); format: functional
[30] = AUC(0 to t) in Sprague-Dawley rat at 10 mg/kg, po measured upto 24 hrs by LC-MS/MS analysis; format: ADME, organism-based; parameters: dose 10 mg/kg, time < 24 hrs, route po; details: in vivo
DOHH-2 [31] = assay: Induction of cell cycle arrest in human DOHH-2 cells assessed as accumulation of cells at G0/G1 phase at 0.5 uM incubated for 24 hrs in presence of ibrutinib by PI staining based flow cytometry analysis (reference value: 23.47 %); format: functional
DOHH-2 [32] = assay: Induction of cell cycle arrest in human DOHH-2 cells assessed as accumulation of cells at G2/M phase at 0.5 uM incubated for 24 hrs by PI staining based flow cytometry analysis (reference value: 21.42 %); format: functional
[33] = Selectivity ratio of IC50 for human 786-O cells over expressing PI3Kbeta to IC50 for human SU-DHL-6 cells; format: functional
[34] = Tmax in Sprague-Dawley rat at 2 mg/kg, iv measured upto 24 hrs by LC-MS/MS analysis; format: ADME, organism-based; details: in vivo
SU-DHL-6 [35] = assay: Induction of apoptosis in human SU-DHL-6 cells assessed as early apoptotic cells at 1.5 uM incubated for 48 hrs by annexin V-FITC and PI staining based flow cytometry analysis (reference value: 8.81 %); format: functional
[36] = Cmax in Sprague-Dawley rat at 10 mg/kg, po measured upto 24 hrs by LC-MS/MS analysis; format: ADME, organism-based; parameters: dose 10 mg/kg, time < 24 hrs, route po; details: in vivo

Sequence of Phosphatidylinositol 4,5-bisphosphate 3-kinase catalytic subunit alpha isoform (P42336 whole entry, canonical isoform): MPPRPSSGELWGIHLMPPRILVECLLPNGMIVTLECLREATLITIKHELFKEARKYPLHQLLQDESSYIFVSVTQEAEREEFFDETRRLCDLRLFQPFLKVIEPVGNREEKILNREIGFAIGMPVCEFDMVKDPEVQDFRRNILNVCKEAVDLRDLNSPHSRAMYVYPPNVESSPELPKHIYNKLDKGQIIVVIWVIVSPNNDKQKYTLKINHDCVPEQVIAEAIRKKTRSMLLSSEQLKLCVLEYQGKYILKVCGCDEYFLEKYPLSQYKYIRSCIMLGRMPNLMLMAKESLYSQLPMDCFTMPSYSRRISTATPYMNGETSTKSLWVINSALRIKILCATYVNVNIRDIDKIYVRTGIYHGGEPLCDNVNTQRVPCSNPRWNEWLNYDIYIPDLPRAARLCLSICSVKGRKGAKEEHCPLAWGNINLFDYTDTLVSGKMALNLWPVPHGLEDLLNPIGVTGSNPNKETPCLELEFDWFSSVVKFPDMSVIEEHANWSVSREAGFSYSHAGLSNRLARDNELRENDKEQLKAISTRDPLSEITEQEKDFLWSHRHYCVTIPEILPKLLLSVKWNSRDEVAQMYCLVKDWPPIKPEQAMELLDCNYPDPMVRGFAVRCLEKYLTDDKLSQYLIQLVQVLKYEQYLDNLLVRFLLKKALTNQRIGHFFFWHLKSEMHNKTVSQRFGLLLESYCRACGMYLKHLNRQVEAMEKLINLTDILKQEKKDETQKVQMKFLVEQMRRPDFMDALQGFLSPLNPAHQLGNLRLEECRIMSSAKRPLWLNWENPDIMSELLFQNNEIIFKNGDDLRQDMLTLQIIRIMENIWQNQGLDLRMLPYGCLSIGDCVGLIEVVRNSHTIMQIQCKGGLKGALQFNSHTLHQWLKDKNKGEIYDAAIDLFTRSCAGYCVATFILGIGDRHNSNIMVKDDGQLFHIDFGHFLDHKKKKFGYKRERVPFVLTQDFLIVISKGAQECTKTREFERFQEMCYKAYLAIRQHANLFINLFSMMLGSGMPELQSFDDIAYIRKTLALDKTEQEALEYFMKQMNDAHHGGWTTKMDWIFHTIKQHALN

For `C[C@H]1CC[C@@H](c2nc3cccc(Cl)c3c(=O)n2-c2cccnc2)N1c1nc(N)nc(N)c1C#N`, the Activity (DOHH-2 [1]) was 43.53%, the CL/F [2] was 13.2 mL/min/kg and the Tmax [3] was 4.8 min. It also gave a clearance [4] of 30.5 mL/min/kg, a Selectivity ratio [5] of 107 and a Cmax [6] of 1520 ng/mL. It also gave a half-life [7] of 9.46 h, an IC50 (SU-DHL-6 [8]) of 60 nM and a viability at 1.5 µM (SU-DHL-6 [9]) of 47.1%. It also gave a Tmax [10] of 3.33 h, an AUC(0-t) at 24 h [11] of 8610 ng·h/mL and a bioavailability [12] of 126%. For the same compound, the Activity (SU-DHL-6 [13]) was 7.43%, the Activity (SU-DHL-6 [14]) was 0.25% and the Activity (SU-DHL-6 [15]) was 26.15%. For the same compound, the IC50 [16] was 794000 nM, the half-life [17] was 2.4 h and the Activity (SU-DHL-6 [18]) was 4.62%. The Activity (SU-DHL-6 [19]) was 0.18%, the IC50 (SUD4) was 30 nM and the viability at 2 µM (DOHH-2 [20]) was 60.6%. The Activity (SU-DHL-6 [21]) was 63.84%, the AUC(0-t) at 24 h [22] was 6810 ng·h/mL and the Vd [23] was 2.86 L/kg. The half-life [24] was 2.79 h, the Cmax [25] was 3640 ng/mL and the Activity (SU-DHL-6 [26]) was “Active”. For the same compound, the half-life [27] was 0.73 h, the Cmax [28] was 860 ng/mL and the Activity (DOHH-2 [29]) was 20.03%. It also gave an AUC(0-t) at 24 h [30] of 2930 ng·h/mL, an Activity (DOHH-2 [31]) of 53.16% and an Activity (DOHH-2 [32]) of 12.82%. It also gave a Selectivity ratio [33] of 142, a Tmax [34] of 1.2 h and an Activity (SU-DHL-6 [35]) of 17.7%. It also gave a Cmax [36] of 785 ng/mL.
